Data: patent US10501479B2, “Benzenesulfonyl-asymmetric ureas and medical uses thereof” (HELSINN HEALTHCARE SA, priority 2016, dated 2019)
Values joined by “and” are separate entries in the source; they are usually repeats but may differ in a detail not shown here. Equal entries are not always repeated. Where two headings read alike, the source gives them in different places.

How the values were obtained:
[1] = Metabolic stability in human liver microsomes; assay type: in vitro ADME
How it was run: (§1)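 Depletion of test compound in NADPH-fortified liver microsomes (pH 7.4 phosphate buffer, 37 °C) is followed over 90 min. Remaining compound in quenched samples is quantified by LC-MS/MS against the time-zero level.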

[2] = target: T1, recombinant human ghrelin receptor (HEK293/GRLN) (Homo sapiens, UniProt Q92847); assay: Ghrelin inverse agonist potency (EC50) with IP-1 (IP-One HTRF) assay; assay type: cell-based; details: IP-1 assay
T1 construct: expressed in transfected cells
T1 sequence (Q92847 whole entry): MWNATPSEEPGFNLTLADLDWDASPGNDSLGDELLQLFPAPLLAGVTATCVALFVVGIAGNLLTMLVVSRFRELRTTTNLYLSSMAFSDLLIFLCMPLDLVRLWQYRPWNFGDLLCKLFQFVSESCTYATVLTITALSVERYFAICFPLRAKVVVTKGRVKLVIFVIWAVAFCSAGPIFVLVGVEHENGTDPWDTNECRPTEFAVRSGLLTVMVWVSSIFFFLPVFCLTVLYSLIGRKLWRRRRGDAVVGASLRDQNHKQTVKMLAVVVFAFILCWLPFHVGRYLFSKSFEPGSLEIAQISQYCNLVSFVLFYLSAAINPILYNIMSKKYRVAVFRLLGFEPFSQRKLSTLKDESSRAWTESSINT
How it was run: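 HEK293/GRLN cells were seeded 18-22 hours before the test, then exposed to compound in stimulation buffer for 1 hour at 37° C, 5% CO2. IP-1 was detected by IP-One HTRF (IP1-d2 plus Tb-cryptate, 1 hour RT), reading 620 and 665 nm; the inverse agonist EC50 was derived from this.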

[3] = target: T2, GHSR-1a (HEK293/GHSR1a cell line) (Homo sapiens, UniProt Q92847); assay: Ghrelin antagonist potency (IC50) with calcium FLIPR assay, ghrelin 10 nM; assay type: cell-based
T2 construct: expressed in transfected cells; host or cells: HEK293/GHSR1a cell line
T2 sequence (Q92847 whole entry): as above
How it was run: (§2)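 Potency values were estimated from dose-response curves of relative fluorescence, with calcium followed for 2 minutes after additions at t=20 sec. Agonism was tested with compound alone. Antagonism was tested with compound plus 10 nM ghrelin and scored as a reduction of the ghrelin signal.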

[4] = Metabolic stability in mouse liver microsomes; assay type: in vitro ADME
How it was run: as §1

[5] = Animal PK study in mouse via i.v., p.o. and s.c. administration; assay type: in vivo
Experimental: All treated animals received a single dose of a test compound (either through i.v., p.o., or s.c. administration) according to the regimen shown in the following table:
For oral dose groups, appropriate amount of test compound was prepared in the following formulation carrier: 1% DMSO (increase to 5% maximum if necessary) and 0.5% Methycellulose. Each mouse or rat received by oral gavage 10 mL/kg of the formulation mixture.
For i.v. and s.c dose groups, appropriate amount of test compound was dissolved in 1% DMSO (increase to 5% maximum if necessary), 99% of 20% HP-β-Cyclodextron (w/v). The pH was adjusted accordingly. Each mouse or rat received 5 mL/kg of the formulation mixture. i.v. dose was administered by tail vein injection. Subcutaneous injection was administered over the shoulders, into the loose skin over the neck. At designated time points (e.g., i.v. and s.c.: 0.083, 0.25, 0.5, 1, 2, 4, 8 and 24 hrs; p.o.: 0.25, 0.5, 1, 2, 4, 8 and 24 hrs), systemic samples of blood (50 μL in mouse or 500 μL in rat) were collected by puncture (submandibular vein in mouse or jugular vein in rat) into vacutainers containing EDTA-K2 as anti-coagulant. The blood was centrifuged at 6000 rpm for 8 min at 4° C. to obtain plasma. All plasma samples were stored at −20° C. All plasma samples were added to acetonitrile for protein precipitation and quantitatively analyzed by LC-MS/MS.

[6] = target: T2, GHSR-1a (HEK293/GHSR1a cell line); assay: Ghrelin agonist potency (EC50) with calcium FLIPR assay; assay type: cell-based
How it was run: as §2

[7] = Animal PK study in rat via i.v., p.o. and s.c. administration; assay type: in vivo; details: rat (R), i.p.; for half-life: plasma, ip, read-out: PK T1/2 i.p.
[8] = inverse agonist potency, read-out: EC50 (Activity)
[9] = ghrelin antagonist potency, read-out: IC50 (Activity)
[10] = ghrelin inverse agonist potency, read-out: Activity EC50
[11] = ghrelin antagonist potency, read-out: Activity IC50
[12] = ghrelin agonist potency, read-out: Activity EC50/EMax

Row | Compound | Metabolic Stability Study H = human [1] | EC50 [2, 8] | IC50 [3, 9] | Metabolic Stability Study M = mouse [4] | PK F [5] | PK CLiv ([5]; i.v.) | PK Vdiv ([5]; i.v.) | PK t1/2iv ([5]; i.v.) | PK CLpo ([5]; p.o.) | PK Vdpo ([5]; p.o.) | PK t1/2po ([5]; p.o.) | EC50 [2, 10] | IC50 [3, 11] | EC50 [6, 12] | also measured
1 | C[C@H](NC(=O)Nc1ccc(S(=O)(=O)Cc2ccc(CC(C)(C)N(C)C)cc2)cc1)c1cccc(Cl)c1Cl [H1010, (S)-1-(1-(2,3-dichlorophenyl)ethyl)-3-(4-((4-(2-(dimethylamino)-2-methylpropyl)benzyl)sulfonyl)phenyl)urea] | H = 40.5 M = 40.5 R = not reported D = not reported μL/min/mg | 0.015 µM | 0.042 µM | H = 40.5 M = 40.5 R = not reported D = not reported μL/min/mg | 3.09% | 55.7 mL/min/kg | 1.39 L/kg | 1.39 h | 1803 mL/min/kg | 169 L/kg | 1.08 h | – | – | – | –
2 | COc1ccc([C@H](C)NC(=O)Nc2ccc(S(=O)(=O)Cc3ccc4c(c3)CCN(C(C)=O)C4)cc2)c(Cl)c1Cl [H1025, (S)-1-(4-(((2-acetyl-1,2,3,4-tetrahydroisoquinolin-6-yl)methyl)sulfonyl)phenyl)-3-(1-(2,3-dichloro-4-methoxyphenyl)ethyl)urea] | 92.4 µL/min/mg | – | 21.4 µM | 159.5 µL/min/mg | 5.92% | 30.7 mL/min/kg | 2.86 L/kg | 1.08 h | 514.8 mL/min/kg | 94.83 L/kg | 1.45 h | – | – | – | –
3 | O=C(NCc1ccccc1Cl)Nc1ccc(S(=O)(=O)Cc2ccc3c(c2)CCNC3)cc1 [H1039, 1-(2-chlorobenzyl)-3-(4-(((1,2,3,4-tetrahydroisoquinolin-6-yl)methyl)sulfonyl)phenyl)urea] | < 10 µL/min/mg | 0.0333 µM | 0.113 µM | 13.5 µL/min/mg | 0.6% | 42.5 mL/min/kg | 11.7 L/kg | 3.18 h | 5573 mL/min/kg | 898 L/kg | 1.86 h | – | – | – | –
4 | CC(NC(=O)Nc1ccc(S(=O)(=O)Cc2ccc3c(c2)CNC3)cc1)c1cccc2ccccc12.Cl (stereo not shown) [H1149, 1-(4-((isoindolin-5-ylmethyl)sulfonyl)phenyl)-3-(1-(naphthalen-1-yl)ethyl)urea] | 21.1 µL/min/mg | 0.00169 µM and 0.00241 µM | 0.0048 µM | 24.3 µL/min/mg | 0.86% | 16.3 mL/min/kg | 1.22 L/kg | 0.87 h | 1792 mL/min/kg | 272 L/kg | 1.75 h | – | – | – | –
5 | CC(NC(=O)Nc1ccc(S(=O)(=O)Cc2ccc3c(c2)CN(CC2CC2)C3)cc1)c1ccccc1 (stereo not shown) [H1220, 1-(4-(((2-(cyclopropylmethyl)isoindolin-5-yl)methyl)sulfonyl)phenyl)-3-(1-phenylethyl)urea] | 183.8 µL/min/mg | 0.0304 µM | 0.00361 µM | 248 µL/min/mg | 4.71% | 50.8 mL/min/kg | 3.08 L/kg | 0.7 h | 1030 mL/min/kg | 78.7 L/kg | 0.89 h | – | – | – | –
6 | CC(NC(=O)Nc1ccc(S(=O)(=O)Cc2ccc3c(c2)CN(C)C3)cc1O)c1ccccc1 (stereo not shown) [H1448, 1-(2-hydroxy-4-(((2-methylisoindolin-5-yl)methyl)sulfonyl)phenyl)-3-(1-phenylethyl)urea] | 28 µL/min/mg | – | – | 20.8 µL/min/mg | 1.90% | – | – | – | – | – | – | – | – | – | EC50 ([2]; HEK293/GRLN, read-out: Activity EC50 (ghrelin inverse agonist potency)): 0.0033 µM; IC50 ([3]; HEK293/GHSR1a, ghrelin 10 nM, read-out: Activity IC50 (ghrelin antagonist potency)): 0.0303 µM; EC50 ([6]; HEK293/GHSR1a, read-out: Activity EC50/EMax: EC50 (ghrelin agonist potency)): > 30 µM; PK CL p.o. ([5]; p.o.): 4243 mL/min/kg; PK Vd p.o. ([5]; p.o.): 242.2 L/kg; Vd ([5]; plasma, iv, 5 mg/kg): 9.26 L/kg; clearance ([5]; plasma, iv, 5 mg/kg, i.v., read-out: PK CL i.v.): 80.5 mL/min/kg; half-life ([5]; plasma, iv, 5 mg/kg, i.v., read-out: PK t1/2 i.v.): 1.33 h; half-life ([5]; plasma, po, 10 mg/kg, p.o., read-out: PK t1/2 p.o.): 0.66 h
7 | COc1cc(NC(=O)NC(C)c2ccccc2)ccc1S(=O)(=O)Cc1ccc2c(c1)CNC2 (stereo not shown) [H1461, 1-(4-((isoindolin-5-ylmethyl)sulfonyl)-3-methoxyphenyl)-3-(1-phenylethyl)urea] | 22.0 µL/min/mg | – | – | < 10 µL/min/mg | – | – | – | – | – | – | – | 0.0035 µM | 0.0079 µM | > 30 µM | half-life [7]: 2.61 h; PK CL i.p. [7]: 38.3 mL/min/kg; PK Vd i.p. [7]: 8.64 L/kg
8 | CC(c1ccccc1)N(O)C(=O)Nc1ccc(S(=O)(=O)Cc2ccc3c(c2)CNC3)cc1 (stereo not shown) [H1472, 1-hydroxy-3-(4-((isoindolin-5-ylmethyl)sulfonyl)phenyl)-1-(1-phenylethyl)urea] | – | – | – | – | – | – | – | – | – | – | – | 0.00325 µM | 0.006 µM | > 30 µM | half-life [7]: 2.43 h; PK CL i.p. [7]: 36.5 mL/min/kg; PK Vd i.p. [7]: 7.71 L/kg
9 | CC(NC(=O)Nc1ccc(S(=O)(=O)Cc2ccc3c(c2)CNC3)cc1-c1cc[nH]n1)c1ccccc1 (stereo not shown) [H1519, 1-(4-((isoindolin-5-ylmethyl)sulfonyl)-2-(1H-pyrazol-3-yl)phenyl)-3-(1-phenylethyl)urea] | 47.3 µL/min/mg | – | – | 169.8 µL/min/mg | – | – | – | – | – | – | – | 0.0046 µM | 0.0121 µM | > 30 µM | –
10 | COc1cc(S(=O)(=O)Cc2ccc3c(c2)CCN(C)C3)ccc1NC(=O)N(O)C(C)c1cccc(Cl)c1Cl.O=C(O)C(F)(F)F (stereo not shown) [H1523, 1-(1-(2,3-dichlorophenyl)ethyl)-1-hydroxy-3-(2-methoxy-4-(((2-methyl-1,2,3,4-tetrahydroisoquinolin-6-yl)methyl)sulfonyl)phenyl)urea] | 100.9 µL/min/mg | – | – | 155.5 µL/min/mg | – | – | – | – | – | – | – | 0.0021 µM | 0.00492 µM | > 30 µM | –
11 | C[C@@H](NC(=O)Nc1ccc(S(=O)(=O)Cc2ccc3c(c2)C(F)CNC3)cc1)c1cccc(Cl)c1Cl (stereo partly drawn) [H1537, 1-((R)-1-(2,3-dichlorophenyl)ethyl)-3-(4-(((4-fluoro-1,2,3,4-tetrahydroisoquinolin-6-yl)methyl)sulfonyl)phenyl)urea] | 43.2 µL/min/mg | – | – | 135.3 µL/min/mg | – | – | – | – | – | – | – | 0.0184 µM | 0.0689 µM | > 30 µM | –
12 | C[C@@H](NC(=O)Nc1ccc(S(=O)(=O)Cc2ccc3c(c2)C(F)CN(C)C3)cc1)c1cccc(Cl)c1Cl (stereo partly drawn) [H1538, 1-((R)-1-(2,3-dichlorophenyl)ethyl)-3-(4-(((4-fluoro-2-methyl-1,2,3,4-tetrahydroisoquinolin-6-yl)methyl)sulfonyl)phenyl)urea] | 237.3 µL/min/mg | – | – | 354 µL/min/mg | – | – | – | – | – | – | – | 0.0086 µM | 0.172 µM | > 30 µM | –
